The values below come from patent publication US12473304B2, “Heterocyclic PAD4 inhibitors” (BRISTOL-MYERS SQUIBB COMPANY, priority 2020, dated 2025).

human PAD4 (hPAD4), sequence (Q9UM07 whole entry): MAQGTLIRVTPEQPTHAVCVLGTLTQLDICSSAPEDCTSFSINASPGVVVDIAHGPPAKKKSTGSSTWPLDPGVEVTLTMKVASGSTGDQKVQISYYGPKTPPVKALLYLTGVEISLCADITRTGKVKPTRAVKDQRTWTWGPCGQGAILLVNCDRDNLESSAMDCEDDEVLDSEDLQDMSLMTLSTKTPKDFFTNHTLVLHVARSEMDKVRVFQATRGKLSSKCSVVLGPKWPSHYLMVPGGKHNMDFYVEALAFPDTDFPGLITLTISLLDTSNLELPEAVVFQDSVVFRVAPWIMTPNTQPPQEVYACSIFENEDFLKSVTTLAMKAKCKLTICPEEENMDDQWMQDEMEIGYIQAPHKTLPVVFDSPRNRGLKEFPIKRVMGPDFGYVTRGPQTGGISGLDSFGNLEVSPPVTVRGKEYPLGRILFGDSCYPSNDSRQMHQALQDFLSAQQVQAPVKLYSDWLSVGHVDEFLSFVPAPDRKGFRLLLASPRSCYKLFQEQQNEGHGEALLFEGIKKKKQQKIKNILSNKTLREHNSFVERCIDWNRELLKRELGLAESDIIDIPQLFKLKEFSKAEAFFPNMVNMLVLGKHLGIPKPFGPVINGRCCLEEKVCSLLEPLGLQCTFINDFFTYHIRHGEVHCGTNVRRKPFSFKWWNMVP

The assay deals with human PAD4 (hPAD4) (Homo sapiens (Human), UniProt Q9UM07). The experiment in a line: RFMS Human PAD4 Functional Assay 1. The format is biochemical. The settings on record: RFMS assay 1; 5 nM hPAD4, 250 μM BAEE substrate, 50 μM calcium, 37° C. The protocol:
RFMS Human PAD4 Functional Assay 1:
Compounds were solubilized in 100% DMSO to achieve all) mM compound concentration. Compound stock solutions were stored at RT. A series of dilutions were prepared in DMSO and mixed 8 times with 20 μL mixing volume. Final top concentration of compound in the assay is 50 μM. Final assay conditions were as follows: • Reaction volume: 26 μl • Assay buffer: 25 mM hepes, pH 7.5, 5 mM NaCl, 1 mM DTT, 0.2 mg/ml BSA, 0.01% CHAPS, 50 μM Calcium, and 5 μM TPEN • Final concentrations: 5 nM hPAD4 enzyme, 250 μM BASE, and 0.5% DMSO • Total incubation time: 30 mins compound and enzyme preincubation at 37° C., 90 min enzyme/substrate reaction, 30 min reaction with phenyl glyoxal at 37° C. • Stop solution: 40 μl 5% TCA in ACN
0.13 μL of compound solution was added to 13 μL of 10 nM PAD4 in assay buffer. After 30 min 13 μl of 500 μM of BAEE was added in 25 mM hepes, pH 7.5, 5 mM NaCl, 1 mM DTT, 0.2 mg/ml BSA, 0.01% CHAPS, 50 μM Calcium, 5 μM TPEN was added and the reaction incubated for 90 min at 37° C. The enzymatic reaction was quenched by addition of 15 μl of 6.1N TCA, 100% Final Concentration is 20%, 35 μl of 8.5 mM phenyl glyoxal (final concentration 4 mM) is then added and the reaction is incubated for 30 min at 37° C.
After 30 minutes the plates are spun down to remove all precipitate. The enzyme reaction was quenched with an equal volume of methanol containing internal standard (modified citrulline). Samples were loaded onto the Rapid Fire RF300 system (Agilent) wherein they were first sipped for 1000 ms and then directly loaded to a C18 separations cartridge using a mixture of acetonitrile containing 0.01% formic acid for 3000 ms desalting. The flow rate of the mobile phase was 1.5 ml/min. Once the samples were eluted from the cartridge, a mobile phase of acetonitrile containing 0.01% formic acid was used to move the samples into the mass spectrometer for 4000 ms at a flow rate of 1.25 ml/min/Sciex API5500 triple quadrupole mass spectrometer (Applied Biosystems) equipped with ESI was used to analyze the peptidyl citrulline and internal standard ions.
MRM transition of product and internal standard were monitored at m/z 424.5 to 350.4 and m/z 293 to 247 respectively. The dwell time for each transition was set at 200 ms, and the ESI voltage was used at 5500 with a source temperature of 400° C. Extracted ion peaks for each transition were integrated using the Rapid Fire Integrator software. Peak area of analyte was normalized with internal standard.).
As for `Cc1c(-c2cc3cccc(C4CCN(C(=O)C5CC(O)C5)CC4)c3n2CC2CC2)nn2cc(C(=O)N3CC4CCC3[C@@H]4N)ccc12` (mixture of isomers) [Example 467, (4-(2-(6-((7R)-7-amino-2-azabicyclo[2.2.1]heptane-2-carbonyl)-3-methylpyrazolo[1,5-a]pyridin-2-yl)-1-(cyclopropylmethyl)-1H-indol-7-yl)piperidin-1-yl)(3-hydroxycyclobutyl)methanone], the IC50 was found to be 20 nM.

Consider `Cc1c(-c2cc3cc(F)cc(C4CCN(C(=O)C5CC(O)C5)CC4)c3n2CC2CC2)nn2cc(C(=O)N3CCC[C@@H](N)C3)ccc12` (mixture of isomers) [Example 492, (R)-(3-Aminopiperidin-1-yl)(2-(1-(cyclopropylmethyl)-5-fluoro-7-(1-(3-hydroxycyclobutane-1-carbonyl)piperidin-4-yl)-1H-indol-2-yl)-3-methylpyrazolo[1,5-a]pyridin-6-yl)methanone], for which the IC50 worked out at 130 nM.

For `Cc1c(-c2cc3cc(F)cc(C4CCN(C(=O)C5CC(O)C5)CC4)c3n2CC2CC2)nn2cc(C(=O)N3C[C@H](N)C[C@@H](F)C3)ccc12` (mixture of isomers) [Example 496, ((3R,5R)-3-Amino-5-fluoropiperidin-1-yl)(2-(1-(cyclopropylmethyl)-5-fluoro-7-(1-(3-hydroxycyclobutane-1-carbonyl)piperidin-4-yl)-1H-indol-2-yl)-3-methylpyrazolo[1,5-a]pyridin-6-yl)methanone], the half-inhibitory concentration (IC50) is 20 nM.

For the molecule `Cc1c(-c2cc3cc(F)cc(C4CCN(C(=O)C5CC(O)(C(F)(F)F)C5)CC4)c3n2CC2CC2)nn2cc(C(=O)N3C[C@H](N)C[C@@H](F)C3)ccc12` (mixture of isomers) [Example 505, ((3R,5R)-3-Amino-5-fluoropiperidin-1-yl)(2-(1-(cyclopropylmethyl)-5-fluoro-7-(1-(3-hydroxy-3-(trifluoromethyl)cyclobutane-1-carbonyl)piperidin-4-yl)-1H-indol-2-yl)-3-methylpyrazolo[1,5-a]pyridin-6-yl)methanone], the IC50 was 60 nM.

With `Cc1c(-c2cc3cc(F)cc(C4CCN(C(=O)C5CCCCO5)CC4)c3n2CC2CC2)nn2cc(C(=O)N3CCC[C@@H](N)C3)ccc12` (mixture of isomers) [Example 508, ((R)-3-Aminopiperidin-1-yl)(2-(1-(cyclopropylmethyl)-5-fluoro-7-(1-(tetrahydro-2H-pyran-2-carbonyl)piperidin-4-yl)-1H-indol-2-yl)-3-methylpyrazolo[1,5-a]pyridin-6-yl)methanone], the IC50 was 40 nM.

As to `Cc1c(-c2cc3cc(F)cc(C4CCN(C(=O)C5CCCCO5)CC4)c3n2CC2CC2)nn2cc(C(=O)N3C[C@H](N)C[C@@H](F)C3)ccc12` (mixture of isomers) [Example 509, ((3R,5R)-3-Amino-5-fluoropiperidin-1-yl)(2-(1-(cyclopropylmethyl)-5-fluoro-7-(1-(tetrahydro-2H-pyran-2-carbonyl)piperidin-4-yl)-1H-indol-2-yl)-3-methylpyrazolo[1,5-a]pyridin-6-yl)methanone], the IC50 stood at 350 nM.

Consider `COc1cc(C(=O)N2CCC[C@@H](N)C2)cn2nc(-c3cc4cccc(C5CN(C(=O)C6CC(O)(C(F)(F)F)C6)C5)c4n3CC3CC3)c(C)c12` (mixture of isomers) [Example 515, (R)-(3-Aminopiperidin-1-yl)(2-(1-(cyclopropylmethyl)-7-(1-(3-hydroxy-3-(trifluoromethyl)cyclobutane-1-carbonyl)azetidin-3-yl)-1H-indol-2-yl)-4-methoxy-3-methylpyrazolo[1,5-a]pyridin-6-yl)methanone], for which the IC50 was 60 nM.

Turning to `Cc1c(-c2cc3cccc(C4CN(C(=O)C5CC(O)(C(F)(F)F)C5)C4)c3n2CC2CC2)nn2cc(C(=O)N3CCC[C@@H](N)C3)ccc12` (mixture of isomers) [Example 535, (R)-(3-Aminopiperidin-1-yl)(2-(1-(cyclopropylmethyl)-7-(1-(3-hydroxy-3-(trifluoromethyl)cyclobutane-1-carbonyl)azetidin-3-yl)-1H-indol-2-yl)-3-methylpyrazolo[1,5-a]pyridin-6-yl)methanone], the IC50 is 70 nM.

In the case of `Cc1c(-c2cc3cccc(C4CN(C(=O)C5CCCCO5)C4)c3n2CC2CC2)nn2cc(C(=O)N3C[C@H](N)C[C@@H](F)C3)ccc12` (mixture of isomers) [Example 544, ((3R,5R)-3-Amino-5-fluoropiperidin-1-yl)(2-(1-(cyclopropylmethyl)-7-(1-(tetrahydro-2H-pyran-2-carbonyl)azetidin-3-yl)-1H-indol-2-yl)-3-methylpyrazolo[1,5-a]pyridin-6-yl)methanone], the 50% inhibitory concentration (IC50) was 1070 nM.

Take `Cc1c(-c2cc3cccc(C4CN(C(=O)C5CCCCO5)C4)c3n2CC2CC2)nn2cc(C(=O)N3CCC[C@@H](N)C3)ccc12` (mixture of isomers) [Example 545, ((R)-3-Aminopiperidin-1-yl)(2-(1-(cyclopropylmethyl)-7-(1-(tetrahydro-2H-pyran-2-carbonyl)azetidin-3-yl)-1H-indol-2-yl)-3-methylpyrazolo[1,5-a]pyridin-6-yl)methanone]: the IC50 came out at 260 nM.

As to `COc1cc(C(=O)N2CC3CCC2[C@@H]3N)cn2nc(-c3cc4ccnc(OCC5CNC(=O)C5)c4n3CC3CC3)c(C)c12` (mixture of isomers) [Example 608, 4-(((2-(6-((7R)-7-Amino-2-azabicyclo[2.2.1]heptane-2-carbonyl)-4-methoxy-3-methylpyrazolo[1,5-a]pyridin-2-yl)-1-(cyclopropylmethyl)-1H-pyrrolo[2,3-c]pyridin-7-yl)oxy)methyl)pyrrolidin-2-one (mixture of diastereomers)], the IC50 was 10 nM.

For the molecule `Cc1c(-c2cc3ccc(C(C)(O)C(F)(F)F)nc3n2CC2CC2)nn2cc(C(=O)N3C[C@H](N)C[C@@H](F)C3)ccc12` (single isomer, unassigned) [Example 106], the IC50 is 208 nM.

`Cc1c(-c2cc3ccc(C(C)(O)C(F)(F)F)nc3n2CC2CC2)nn2cc(C(=O)N3C[C@H](N)C[C@@H](F)C3)ccc12` (single isomer, unassigned) [Example 107]: the IC50 was determined as 240 nM.

On to `COc1cc(C(=O)N2CCC[C@@H](N)C2)cn2nc(-c3cc4cccc(C5CCN(C(=O)C6CCCCO6)CC5)c4n3CC3CC3)c(C)c12` (single isomer, unassigned) [Example 386], for which the IC50 came out at 80 nM.

`COc1cc(C(=O)N2CCC[C@@H](N)C2)cn2nc(-c3cc4cccc(C5CCN(C(=O)C6CCCCO6)CC5)c4n3CC3CC3)c(C)c12` (single isomer, unassigned) [Example 387]: the IC50 came out at 230 nM.

With `COc1cc(C(=O)N2C[C@H](N)C[C@@H](F)C2)cn2nc(-c3cc4cccc(C5CCN(C(=O)C6CCCCO6)CC5)c4n3CC3CC3)c(C)c12` (single isomer, unassigned) [Example 388], the IC50 came to 70 nM.

For `COc1cc(C(=O)N2C[C@H](N)C[C@@H](F)C2)cn2nc(-c3cc4cccc(C5CCN(C(=O)C6CCCCO6)CC5)c4n3CC3CC3)c(C)c12` (single isomer, unassigned) [Example 389], the IC50 was 30 nM.

As to `COc1cc(C(=O)N2C[C@H](N)C[C@@H](F)C2)cn2nc(-c3cc4cccc(C5CCN(C(=O)C6CC(O)C6)CC5)c4n3CC3CC3)c(C)c12` (single isomer, unassigned) [Example 390], the IC50 was 5 nM.

As to `COc1cc(C(=O)N2CCC[C@@H](N)C2)cn2nc(-c3cc4cccc(C5CCN(C(=O)C6CC(O)C6)CC5)c4n3CC3CC3)c(C)c12` (single isomer, unassigned) [Example 392], the IC50 was found to be 3 nM.

Turning to `COc1cc(C(=O)N2C[C@H](N)C[C@@H](F)C2)cn2nc(-c3cc4cccc(C5CCN(C(=O)C6CC(O)C6)CC5)c4n3CC3CC3)c(C)c12` (single isomer, unassigned) [Example 393], the IC50 is 250 nM.

Turning to `COc1cc(C(=O)N2C[C@H](N)C[C@@H](F)C2)cn2nc(-c3cc4cccc(C5CCN(C(=O)C6CCCO6)CC5)c4n3CC3CC3)c(C)c12` (single isomer, unassigned) [Example 394], the IC50 turned out to be 10 nM.

On to `COc1cc(C(=O)N2CCC[C@@H](N)C2)cn2nc(-c3cc4cccc(C5CCN(C(=O)C6CC(O)C6)CC5)c4n3CC3CC3)c(C)c12` (single isomer, unassigned) [Example 396], for which the IC50 was 110 nM.

Usually IC50 stands for the concentration needed to halve the response being measured.
